Measured values from ChEMBL document CHEMBL3832545, “DailyMed|setid=29481887-34eb-460a-bd7f-b8755473065a | EXELON - rivastigmine patch, extended release|Physicians Total Care, Inc”.

Key:
Assay type in all cases: ADME, organism-based
[1] = (§1) Evaluation of the pharmacokinetic parameters for Rivastigmine 0.5 to 1 hour after administration of 9.5 mg/24 hours Rivastigmine transdermal system (Exelon patch).; conditions: human, in vivo, topical or ocular, dosed compound id 5, dosed compound name RIVASTIGMINE, regimen Single dose, sampling time1 0.5-1 hr, study dosing duration 24 hr, tissue Plasma
Homo sapiens [2] = experiment: as §1; conditions: in vivo, topical_or_ocular, dosed compound id 5, dosed compound name RIVASTIGMINE, regimen Single dose, sampling time1 0.5-1 hr, study dosing duration 24 hr
Homo sapiens [3] = experiment: Evaluation of the pharmacokinetic parameters for Rivastigmine following multiple oral administration of 6 mg Rivastigmine tablets.; conditions: in vivo, dosed compound id 5, dosed compound name RIVASTIGMINE, regimen Twice daily, tissue Plasma

## CCN(C)C(=O)Oc1cccc([C@H](C)N(C)C)c1 [RIVASTIGMINE]
[1]; 9.5 mg/24 hours
  CL renal: 35 to 46.7 mL/min
[1]; at 9.5 mg, read-out: Protein binding (converted)
  fraction unbound: 0.6
Homo sapiens [2]; tissue Cerebrospinal Fluid (CSF)
  Tmax: 1.4 to 2.6 h
Homo sapiens [2]; tissue Plasma
  Tmax: 8 h
  Vd: 1.8 to 2.7 L/kg
Homo sapiens [3]
  Ratio AUC(inf): 3.5
